Assay results published in PubChem BioAssay AID2745 (NMMLSC, 2010).
Active and inactive are the calls of the source. How the calls were made is not given here.

Assay: concentration series on yeast TOR reporter LAP4 – cell-based, MLPCN hits, flow cytometry, dose response (AID 2745);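 further: yeast exposed to compound for three hours at 30 degrees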
Details: S. cerevisiae LAP4-GFP reporter, flow cytometry fluorescence; at 33 µM (top of the series)

SMILES	LAP4-GFP fluorescence (kMESF)
CC1=C(C)/C(=N\OS(=O)(=O)c2ccc(C)cc2)C=CC1=O	5.77 kMESF (inactive)
COc1cc(NC(=O)c2cccc(C)c2)ccc1NC(=O)c1cc2ccccc2o1	3.31 kMESF (inactive)
Cc1ccc(NC(=O)CCc2ccccc2)cc1S(=O)(=O)N1CCOCC1	3.23 kMESF (inactive)
COc1ccc(C2(C)ON(c3ccccc3C(F)(F)F)C2=O)cc1 (centres undefined)	6.61 kMESF (inactive)
CN(C)/C=C/C(=O)c1ccc(-c2ccc(Cl)cc2Cl)o1	4.39 kMESF (inactive)
CC(C)[C@]1(c2ccc(Cl)cc2)ON(c2ccccc2C(F)(F)F)C1=O	3.43 kMESF (inactive)
N/C(Cc1ccc(Cl)cc1Cl)=N\OC(=O)c1ccccc1	9.94 kMESF (inactive)
COc1cc(/C=C2\C(=O)ON=C2c2ccccc2)cc(Br)c1O	14.7 kMESF (inactive)
Cc1ccc(C2=NN(S(C)(=O)=O)C(c3ccc4c(c3)OCO4)C2)cc1 (centres undefined)	4.78 kMESF (inactive)
COc1ccc(Cl)cc1C(Nc1cccnc1)c1ccc2cccnc2c1O (centres undefined)	19.3 kMESF (inactive)
Cc1c(C)c2ccc(Oc3ccc([N+](=O)[O-])cc3C(F)(F)F)c(C)c2oc1=O	3.47 kMESF (inactive)
Cc1ccc(NC(=O)c2cc(N3C(=O)C=CC3=O)ccc2N2CCOCC2)cc1Cl	10.5 kMESF (inactive)
Cc1ccccc1C(=O)NNC(=S)NC(=O)c1ccc(Cl)cc1Cl	8.22 kMESF (inactive)
CN(C)c1ccc(N=Cc2nc(-c3ccccc3)oc2OC(=O)c2cccc(Cl)c2)cc1	3.99 kMESF (inactive)
O=C(COc1c(Br)cc(Br)c2cccnc12)N1CCc2ccccc2C1	12.3 kMESF (inactive)
Cc1cccc(NC(c2ccc(C)s2)c2ccc3ccc(C)nc3c2O)n1 (centres undefined)	16.8 kMESF (inactive)
COc1cc(/C=C2/C(=O)ON=C2c2ccccc2)ccc1O	9.39 kMESF (inactive)

SMILES	LAP4-GFP fluorescence (kMESF)
CC(=O)OC[C@]12CC[C@H]3[C@@](C)(CC[C@H]4C(C)(C)CCC[C@]34C)[C@@H]1C[C@H](C1=CC(=O)O[C@@H]1OC(C)=O)O2	13.6 kMESF (inactive)
CC1=C/C(=N\OS(=O)(=O)c2ccccc2)C(C)=CC1=O	4.1 kMESF (inactive)
O=[N+]([O-])c1ccc(-c2cn3nc(-c4ccccc4)c(-c4ccccc4)nc3n2)cc1	9.37 kMESF (inactive)
O=C1N(c2ccccc2C(F)(F)F)O[C@]1(c1ccccc1)C1CCCC1	3.98 kMESF (inactive)
O=C1C(=O)c2ccccc2-c2ccccc21	5.27 kMESF (inactive)
Nc1ccc2ccc3cccc[n+]3c2c1	10.3 kMESF (inactive)
N#Cc1ccc(N=c2ssnc2Cl)cc1	9.41 kMESF (inactive)
Cc1ccc(S(=O)(=O)Cc2cc(F)c([N+](=O)[O-])cc2[N+](=O)[O-])cc1	1.59 kMESF (inactive)
CCc1ccc(C(=O)/C=C/c2ccc([N+](=O)[O-])o2)cc1	10.5 kMESF (inactive)
COc1ccc(/C=C/C(=O)c2cc(Br)ccc(=O)c2O)cc1	-33.8 kMESF (inactive)
COc1ccc(OC)c(S(=O)(=O)ON2C(=O)c3ccccc3C2=O)c1	1.75 kMESF (inactive)
O=C(O)c1cccc(S(=O)(=O)Nc2ccc(S(=O)(=O)N3CCOCC3)cc2)c1	3.38 kMESF (inactive)
COc1ccc(N2C(=O)C(Cl)=C(NCc3ccccc3)C2=O)cc1	6.61 kMESF (inactive)
Cc1ccc(/C=C2\C(=O)NC(=S)N(c3ccccc3F)C2=O)s1	5.57 kMESF (inactive)
COc1cc(/C=C2\CC/C(=C\c3cc(OC)c(O)c(OC)c3)C2=O)cc(OC)c1O	2.53 kMESF (inactive)
O=S(=O)(/N=C(\Sc1ccc(Cl)cc1)c1ccccc1)c1ccccc1	12.4 kMESF (inactive)
O=C(O)c1ccc(COc2ccccc2C=C2C(=O)c3ccccc3C2=O)cc1	4.11 kMESF (inactive)
